Measurements published in BindingDB's records for doi:10.1016/j.bmcl.2009.10.094 (Amgen, 2009).

Test: Antagonist activity at human CRTH2 receptor expressed in CEM cell assessed as inhibition of PGD2-induced cell migration after 3 hrs by transwell migration assay

## CC(=O)N(c1ccccc1)[C@@H]1C[C@H](C)N(C(=O)c2ccccc2)c2ccccc21 (racemic) [(+/-)-cis-N-(1-benzoyl-2-methyl-1,2,3,4-tetrahydroquinolin-4-yl)-N-phenylacetamide]
  EC50: 11 nM
